In patent US12653856B2, “Gynostemma pentaphyllum tea or Gynostemma pentaphyllum tea extract containing gypenoside L and gypenoside LI and antiobesity use thereof” (BIONIC TRADING CORPORATION, priority 2021, dated 2026):
Marks after values point to notes of the source that are not given here.

Test system: male ICR mice on high-fat feed
Test: Body fat and body weight reduction in mice given high-fat feed
Format: in vivo, mouse
Details: extracts 300 mg/kg
Excerpt: As experimental animals, 4-week-old male ICR mice were purchased from Orient Bio and acclimated for a week. Each group consisted of 10 animals. For a normal diet group (G1) and high-fat diet groups (G2 to G6), normal feed (energy ratio (kcal %); protein:carbohydrate:fat=20:70:10) or high-fat feed (energy ratio (kcal %); protein:carbohydrate:fat=20:20:60) purchased from Research Diets, Inc. (New Brunswick, NJ, USA) was provided, respectively. The feed and water were allowed freely. The specific compositions of the normal feed and the high-fat feed are described in Table 6. The test substance was administered orally at regular intervals for 8 weeks by dissolving in physiological saline (G3 to G6). For G1 and G2, physiological saline containing no test substance was administered orally. The experimental animal breeding room was maintained at 12-hour lighting cycles under the condition of 23±3° C., 50 t 10% relative humidity and 10-15 ventilations/hour. The animal experiment was conducted in accordance with the regulations of the Hallym University Institutional Animal Care and Use Committee (Hallym 2018-31). The experimental animals were divided into […]: normal group (G) to which normal feed was given for 6 weeks; control group (G2) to which high-fat feed was given; G3 to which high-fat feed was given and 300 mg/kg of the Gynostemma pentaphyllum tea extract of Example was administered; G4 to which 300 mg/kg of the Gynostemma pentaphyllum tea extract of Comparative Example was administered; G5 to which 300 mg/kg of the Gynostemma pentaphyllum tea extract of Comparative Example 2 was administered; G6 to which 300 mg/kg of the Gynostemma pentaphyllum tea extract of Comparative Example 3 was administered; […] The composition of the test groups is described specifically in Table 7. Initial body weight, final body weight, total body weight gain, feed intake, body fat percentage and feed efficiency ratio (FER) were measured while providing the feed specified in 6-2 to each test group for 8 weeks. Specifically, the body weight was measured using a digital scale once a week at the same time. The feed efficiency ratio (FER) was calculated by the following equation. The result of investigating the initial body weight, final body weight, total body weight gain, feed intake, body fat percentage and feed efficiency ratio for 8 weeks is given in Table 8. Feed efficiency ratio (FER)=body weight gain (g)/feed intake (g) [Equation]

[1] = high-fat feed, 8 weeks oral, orlistat 30 mg/kg

CCCCCCCCCCC[C@@H](C[C@@H]1OC(=O)[C@H]1CCCCCC)OC(=O)[C@H](CC(C)C)NC=O [Orlistat, orlistat]
Initial body weight (baseline, high-fat feed ICR mice, orlistat 30 mg/kg oral): 21.7 ± 0.2 g
Feed efficiency ratio (FER) (body weight gain (g)/feed intake (g), high-fat feed, 8 weeks oral, orlistat 30 mg/kg): 0.126 ± 0.005
Body fat percentage (%) [1]: 36.6 ± 0.7 %
Body weight gain (%) [1]: 70.97* %
Final body weight [1]: 37.1 ± 0.6 g
Total body weight gain [1]: 15.4 ± 0.2 g
Total feed intake [1]: 122.4 ± 0.3 g
